Data on 32 sequences can be found in the supplement of paper PMC11208160.

A short description of the series: recombinant barcode read abundance after kanamycin selection (control-corrected) (log10(CPM+1)); higher = more efficient recombination; sequences stand for … in AGTGCAGAGAAAATCGGCCAGTTTTCTCTGCCTGCAGTCCGCATGCCGT…ATTTATGCAGCGGACTGCCTTTCTCCCAAAGTGATAAACCGGACAGTATCATGGACCGGTTTTCCCGGTAATCCGTATTTGCAAGGTTGGTTTCACT; site = the 11-nt target. Here is the method:
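Same pooled E. coli target screen (IS621 bridge recombinase, kanamycin selection, control-corrected CPM, mean of 2 biological replicates). Here the two core-binding nucleotides of the LTG and RTG of the bridge RNA target-binding loop are mutated. Target and donor CT cores are held constant, and the other 9 guide positions match the target. The target is read from the library oligo sequence. Molecule = full bridge RNA written as DNA: nt 1-80 from the library oligo, rest WT scaffold.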

Regarding “AGGAGGTTCTGGGTTCTAACCTGTTGCCTGA [AGGAGGTCTAG_LTGcore_TC_RTGcore_TC] (site AGGAGGTCTAG) (LTG core: TC, RTG core: TC)”, the “recombinant barcode read abundance (log10)” value worked out at 0.0288.

“AGGCCTCAATGGGTTCTAACCTGTTGCCTTT [AGGCCTCCTAG_LTGcore_AA_RTGcore_AA] (site AGGCCTCCTAG) (LTG core: AA, RTG core: AA)”: the “recombinant barcode read abundance (log10)” value turned out to be 0.0414. As for “AGGCCTCACTGGGTTCTAACCTGTTGCCTAG [AGGCCTCCTAG_LTGcore_AC_RTGcore_CT] (site AGGCCTCCTAG) (LTG core: AC, RTG core: CT)”, the “recombinant barcode read abundance (log10)” value was 0.134. The same measure for “AGGCCTCAGTGGGTTCTAACCTGTTGCCTCT [AGGCCTCCTAG_LTGcore_AG_RTGcore_AG] (site AGGCCTCCTAG) (LTG core: AG, RTG core: AG)”: 0.182. Turning to “AGGCCTCCCTGGGTTCTAACCTGTTGCCTAG [AGGCCTCCTAG_LTGcore_CC_RTGcore_CT] (site AGGCCTCCTAG) (LTG core: CC, RTG core: CT)”, the “recombinant barcode read abundance (log10)” value came to 0.293. For “AGGCCTCCTTGGGTTCTAACCTGTTGCCTCA [AGGCCTCCTAG_LTGcore_CT_RTGcore_TG] (site AGGCCTCCTAG) (LTG core: CT, RTG core: TG)” the value was 0.154.

Turning to “AGGCCTCCTTGGGTTCTAACCTGTTGCCTGC [AGGCCTCCTAG_LTGcore_CT_RTGcore_GC] (site AGGCCTCCTAG) (LTG core: CT, RTG core: GC)”, the “recombinant barcode read abundance (log10)” value turned out to be 0.112. For “AGGCCTCCTTGGGTTCTAACCTGTTGCCTGG [AGGCCTCCTAG_LTGcore_CT_RTGcore_CC] (site AGGCCTCCTAG) (LTG core: CT, RTG core: CC)” the value was 0.337; for “AGGCCTCCTTGGGTTCTAACCTGTTGCCTTG [AGGCCTCCTAG_LTGcore_CT_RTGcore_CA] (site AGGCCTCCTAG) (LTG core: CT, RTG core: CA)”, 0.722; for “AGGCCTCGGTGGGTTCTAACCTGTTGCCTCC [AGGCCTCCTAG_LTGcore_GG_RTGcore_GG] (site AGGCCTCCTAG) (LTG core: GG, RTG core: GG)”, 0.0521.

As for “AGGCCTCTCTGGGTTCTAACCTGTTGCCTGA [AGGCCTCCTAG_LTGcore_TC_RTGcore_TC] (site AGGCCTCCTAG) (LTG core: TC, RTG core: TC)”, the “recombinant barcode read abundance (log10)” value was determined as 0.047. In the case of “AGGCCTCTTTGGGTTCTAACCTGTTGCCTAA [AGGCCTCCTAG_LTGcore_TT_RTGcore_TT] (site AGGCCTCCTAG) (LTG core: TT, RTG core: TT)”, the “recombinant barcode read abundance (log10)” value was 0.196. The same measure for “AGGCCTCTTTGGGTTCTAACCTGTTGCCTAG [AGGCCTCCTAG_LTGcore_TT_RTGcore_CT] (site AGGCCTCCTAG) (LTG core: TT, RTG core: CT)”: 0.103; for “AGGCGGGCATGGGTTCTAACCTGTTGCGGAG [AGGCGGGCTCC_LTGcore_CA_RTGcore_CT] (site AGGCGGGCTCC) (LTG core: CA, RTG core: CT)”: 2.3. The same measure for “AGGCGGGCATGGGTTCTAACCTGTTGCGGTG [AGGCGGGCTCC_LTGcore_CA_RTGcore_CA] (site AGGCGGGCTCC) (LTG core: CA, RTG core: CA)”: 0.776. As to “AGGCGGGCGTGGGTTCTAACCTGTTGCGGCG [AGGCGGGCTCC_LTGcore_CG_RTGcore_CG] (site AGGCGGGCTCC) (LTG core: CG, RTG core: CG)”, the “recombinant barcode read abundance (log10)” value amounted to 0.0653. Regarding “AGGCGGGCTTGGGTTCTAACCTGTTGCGGAA [AGGCGGGCTCC_LTGcore_CT_RTGcore_TT] (site AGGCGGGCTCC) (LTG core: CT, RTG core: TT)”, the “recombinant barcode read abundance (log10)” value turned out to be 0.532. Turning to “AGGCGGGCTTGGGTTCTAACCTGTTGCGGGG [AGGCGGGCTCC_LTGcore_CT_RTGcore_CC] (site AGGCGGGCTCC) (LTG core: CT, RTG core: CC)”, the “recombinant barcode read abundance (log10)” value was 0.756. For “AGGCGGGGGTGGGTTCTAACCTGTTGCGGCC [AGGCGGGCTCC_LTGcore_GG_RTGcore_GG] (site AGGCGGGCTCC) (LTG core: GG, RTG core: GG)”, the “recombinant barcode read abundance (log10)” value was determined as 0.0346.

As for “AGGCGGGTATGGGTTCTAACCTGTTGCGGAG [AGGCGGGCTCC_LTGcore_TA_RTGcore_CT] (site AGGCGGGCTCC) (LTG core: TA, RTG core: CT)”, the “recombinant barcode read abundance (log10)” value came to 0.232.

Turning to “AGGCGGGTTTGGGTTCTAACCTGTTGCGGAG [AGGCGGGCTCC_LTGcore_TT_RTGcore_CT] (site AGGCGGGCTCC) (LTG core: TT, RTG core: CT)”, the “recombinant barcode read abundance (log10)” value turned out to be 0.475. “AGGCGGTACTGGGTTCTAACCTGTTGCTTAG [AGGCGGTCTAA_LTGcore_AC_RTGcore_CT] (site AGGCGGTCTAA) (LTG core: AC, RTG core: CT)”: the “recombinant barcode read abundance (log10)” value worked out at 0.272. “AGGCGGTATTGGGTTCTAACCTGTTGCTTAT [AGGCGGTCTAA_LTGcore_AT_RTGcore_AT] (site AGGCGGTCTAA) (LTG core: AT, RTG core: AT)”: the “recombinant barcode read abundance (log10)” value stood at 0.109. The same measure for “AGGCGGTCCTGGGTTCTAACCTGTTGCTTAG [AGGCGGTCTAA_LTGcore_CC_RTGcore_CT] (site AGGCGGTCTAA) (LTG core: CC, RTG core: CT)”: 0.341; for “AGGCGGTCCTGGGTTCTAACCTGTTGCTTGG [AGGCGGTCTAA_LTGcore_CC_RTGcore_CC] (site AGGCGGTCTAA) (LTG core: CC, RTG core: CC)”: 0.334. The same measure for “AGGCGGTCGTGGGTTCTAACCTGTTGCTTAG [AGGCGGTCTAA_LTGcore_CG_RTGcore_CT] (site AGGCGGTCTAA) (LTG core: CG, RTG core: CT)”: 0.398.

For the sequence “AGGCGGTCTTGGGTTCTAACCTGTTGCTTCA [AGGCGGTCTAA_LTGcore_CT_RTGcore_TG] (site AGGCGGTCTAA) (LTG core: CT, RTG core: TG)”, the “recombinant barcode read abundance (log10)” value amounted to 0.171. The same measure for “AGGCGGTCTTGGGTTCTAACCTGTTGCTTCG [AGGCGGTCTAA_LTGcore_CT_RTGcore_CG] (site AGGCGGTCTAA) (LTG core: CT, RTG core: CG)”: 0.117; for “AGGCGGTCTTGGGTTCTAACCTGTTGCTTTA [AGGCGGTCTAA_LTGcore_CT_RTGcore_TA] (site AGGCGGTCTAA) (LTG core: CT, RTG core: TA)”: 0.353. The same measure for “AGGCGGTGTTGGGTTCTAACCTGTTGCTTAC [AGGCGGTCTAA_LTGcore_GT_RTGcore_GT] (site AGGCGGTCTAA) (LTG core: GT, RTG core: GT)”: 0.278. The same measure for “AGGCGGTTATGGGTTCTAACCTGTTGCTTAG [AGGCGGTCTAA_LTGcore_TA_RTGcore_CT] (site AGGCGGTCTAA) (LTG core: TA, RTG core: CT)”: 0.168.

“AGGCGGTTATGGGTTCTAACCTGTTGCTTTA [AGGCGGTCTAA_LTGcore_TA_RTGcore_TA] (site AGGCGGTCTAA) (LTG core: TA, RTG core: TA)”: the “recombinant barcode read abundance (log10)” value came to 0.025.
